Key:
[1] = molecular target: T1, human recombinant PDE10A (Homo sapiens, UniProt Q9Y233); experiment: Inhibition of human recombinant PDE10A ([3H]-cAMP SPA, Method B); type: biochemical; details: read-out: PDE10 inhibition IC50 [nM] PDE10A human
T1 construct: made in house; host or cells: SF21 insect cells (baculovirus)
Description: The gene was than inserted into a baculovirus vector, ligated with the baculovirus DNA. The enzyme-protein was expressed in SF21-cells. The enzyme was isolated from these cells by harvesting the cells by a centrifugation at 200 g to collect the cells. The cells were resuspended in 50 mM Tris-HCl/5 mM MgCl2 buffer (pH=7.4) and lysed by a sonication of the cells. The cytosolic PDE10A was obtained by a centrifugation at 48000 g for 1 h in the supernatant and stored at −70° C. PDE10 activity was determined in a one step procedure in microtiterplates. […] Nonspecific activity was tested without the enzyme. The reaction was initiated by addition of the substrate solution and was carried out at 37° C. for 30 minutes. Enzymatic activity was stopped by addition of 25 μl YSi-SPA-beads (Amersham-Pharmacia). One hour later the mixture was measured in a liquid scintillation counter for microtiterplates (Microbeta Trilux). To pipette the incubation mixture a robot Biomek (Fa. Beckman) is used. […] For determination of IC50 values the Hill-plot, 2-parameter-model, was used.

[2] = molecular target: PDE10 from pig striatum (Sus scrofa, UniProt A0A287B941); experiment: Inhibition of PDE10 from pig striatum ([3H]-cAMP SPA, Methods A and B); type: biochemical; details: PDE10 pig
Description: Striatum from male Wistar rats (180-200 g), male hybrid pigs (150 kg) and male guinea pigs (CRL (HA), 500 g) respectively were collected and frozen at −70° C. At the day of preparation 0.5 g striatum was homogenised in 10 ml 50 mM Tris/Mg-buffer at 4° C. and centrifuged for one hour at 100000 g. The supernatant is called the cytosolic fraction and was removed and stored on ice. The pellet was resuspended in the same buffer, but containing 1% Triton and incubated for 45 min at 4° C. Both fractions were independently applied onto a 5 ml Hi Trap™ QHP column at the Äkta-FPLC. After washing the columns the bound PDE protein was eluted with an increasing sodium chloride gradient (0 mM-500 mM sodium chloride) in 50 mM Tris/Mg-buffer at 4° C. for the cytosolic fraction and in the presence of 1% Triton for the membrane fraction. […] The fractions with PDE10-activity were pooled and frozen in aliquots until use at −20° C. PDE10 activity was determined in a one step procedure in microtiter plates. […] Nonspecific activity was tested without the enzyme. The reaction was initiated by addition of the substrate solution and was carried out at 37° C. for 30 minutes. Enzymatic activity was stopped by addition of 25 μl YSi-SPA-beads (Amersham-Pharmacia). One hour later the mixture was measured in a liquid scintillation counter for microtiter plates (Microbeta Trilux). To pipette the incubation mixture a robot Biomek (Fa. Beckman) is used. […] For determination of IC50 values the Hill-plot, 2-parameter-model, was used. […] Striatum from male hybrid pigs (150 kg) were collected and frozen at −70° C. At the day of preparation 0.5 g striatum was homogenised in 10 ml 50 mM Tris/Mg-buffer at 4° C. and centrifuged for one hour at 100000 g. The supernatant was removed and the pellet was resuspended in the same buffer, but containing 1% Triton and incubated for 45 min at 4° C. The membrane fraction was applied onto a 5 ml Hi Trap™ QHP column at the Äkta-FPLC. After washing the column the bound PDE protein was eluted with an increasing sodium chloride gradient (0 mM-500 mM sodium chloride) in 50 mM Tris/Mg-buffer at 4° C. in the presence of 1% Triton. […] The fractions with PDE10-activity were pooled and frozen in aliquots until use at −20° C. PDE10 activity was determined in a one step procedure in microtiterplates. […] Nonspecific activity was tested without the enzyme. The reaction was initiated by addition of the substrate solution and was carried out at 37° C. for 30 minutes. Enzymatic activity was stopped by addition of 25 μl YSi-SPA-beads (Amersham-Pharmacia). One hour later the mixture was measured in a liquid scintillation counter for microtiterplates (Microbeta Trilux). To pipette the incubation mixture a robot Biomek (Fa. Beckman) is used. […] For determination of IC50 values the Hill-plot, 2-parameter-model, was used.

T1 sequence (Q9Y233 1-779 isoform Q9Y233-1): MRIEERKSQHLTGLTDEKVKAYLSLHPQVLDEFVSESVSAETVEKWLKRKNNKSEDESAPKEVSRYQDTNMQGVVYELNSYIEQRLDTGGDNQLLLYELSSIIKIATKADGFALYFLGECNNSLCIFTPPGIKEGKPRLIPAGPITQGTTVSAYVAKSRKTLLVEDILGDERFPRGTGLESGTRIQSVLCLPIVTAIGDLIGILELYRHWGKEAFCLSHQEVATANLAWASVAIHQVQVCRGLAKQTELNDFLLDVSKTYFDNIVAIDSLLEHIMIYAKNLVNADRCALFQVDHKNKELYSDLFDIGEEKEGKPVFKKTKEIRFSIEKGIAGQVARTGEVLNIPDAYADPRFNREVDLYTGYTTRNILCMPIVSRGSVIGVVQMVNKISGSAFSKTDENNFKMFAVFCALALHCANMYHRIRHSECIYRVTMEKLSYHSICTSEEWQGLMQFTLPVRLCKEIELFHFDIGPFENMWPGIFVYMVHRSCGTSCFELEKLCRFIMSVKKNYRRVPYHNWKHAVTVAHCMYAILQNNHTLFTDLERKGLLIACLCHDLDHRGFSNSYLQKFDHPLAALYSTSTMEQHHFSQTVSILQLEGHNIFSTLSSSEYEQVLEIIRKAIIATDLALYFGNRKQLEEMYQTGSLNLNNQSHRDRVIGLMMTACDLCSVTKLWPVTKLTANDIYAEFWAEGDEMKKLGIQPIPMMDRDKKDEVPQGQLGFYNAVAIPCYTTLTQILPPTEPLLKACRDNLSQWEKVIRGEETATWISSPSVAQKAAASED

Row | Molecule | IC50 [1] | IC50 [2] | melting point
1 | 7-Methoxy-3-methyl-1-propyl-imidazo[1,5-a]quinoxalin-4-ylamine [Example 41] | 10 to 100 nM | 10 to 100 nM | 
2 | CCc1nc(C)c2c(N)nc3ccc(N4CCCCC4)cc3n12 [Example 1, 1-Ethyl-3-methyl-8-piperidin-1-yl-imidazo(1,5-a)quinoxalin-4-ylamine] |  | ≥ 100 nM | 
3 | Cc1nc(C2CCCCC2)n2c1c(N)nc1ccc(F)cc12 [Example 2, 1-Cyclohexyl-8-fluoro-3-methyl-imidazo(1,5-a)quinoxalin-4-yl-amine] |  | 10 to 100 nM | 
4 | CCCc1nc(C)c2c(N)nc3ccc(OC)cc3n12 [Example 7, 8-Methoxy-3-methyl-1-propyl-imidazo(1,5-a)quinoxalin-4-ylamine] | 10 to 100 nM |  | 201 to 203 °C
5 | Cc1nc(-c2ccccc2Cl)n2c1c(N)nc1ccc(F)cc12 [Example 8, 1-(2-Chlorphenyl)-8-fluoro-3-methyl-imidazo(1,5-a)quinoxalin-4-ylamine] |  | ≤ 10 nM | 
6 | CCCc1nc(C)c2c(C)nc3ccccc3n12 [Example 9, 3,4-Dimethyl-1-propyl-imidazo(1,5-a)quinoxaline] |  | 10 to 100 nM | 
7 | Cc1nc(-c2ccccc2Cl)n2c1c(C)nc1ccc(F)cc12 [Example 15, 1-(2-Chlorphenyl)-3,4-dimethyl-8-fluoro-imidazo(1,5-a)quinoxaline] | 10 to 100 nM | ≤ 10 nM | 
8 | CCCc1nc(C)c2c(OC)nc3ccc(F)cc3n12 [Example 18, 8-Fluoro-4-methoxy-3-methyl-1-propyl-imidazo(1,5-a)quin-oxaline] |  | 10 to 100 nM | 
9 | Cc1nc(-c2cc(Cl)ccc2Cl)n2c1c(C)nc1ccc(F)cc12 [Example 19, 1-(2,5-Dichlorophenyl)-8-fluoro-3,4-dimethylimidazo[1,5-a]quinoxaline] |  | 10 to 100 nM | 
10 | Cc1nc(-c2cc(Cl)cc(Cl)c2)n2c1c(C)nc1ccc(F)cc12 [Example 20, 1-(3,5-Dichlorophenyl)-8-fluoro-3,4-dimethylimidazo[1,5-a]quinoxaline] |  | 10 to 100 nM | 
11 | Cc1nc(-c2cccc(Cl)c2)n2c1c(C)nc1ccc(F)cc12 [Example 21, 1-(3-Chlorophenyl)-8-fluoro-3,4-dimethylimidazo[1,5-a]quinoxaline] |  | 10 to 100 nM | 
12 | Cc1nc(-c2ccc(F)cc2F)n2c1c(C)nc1ccc(F)cc12 [Example 22, 1-(2,4-Difluorophenyl)-8-fluoro-3,4-dimethylimidazo[1,5-a]quinoxaline] |  | 10 to 100 nM | 
13 | COc1ccccc1-c1nc(C)c2c(C)nc3ccc(F)cc3n12 [Example 23, 8-Fluoro-1-(2-methoxyphenyl)-3,4-dimethylimidazo[1,5-a]quinoxaline] |  | 10 to 100 nM | 
14 | COc1cccc(-c2nc(C)c3c(C)nc4ccc(F)cc4n23)c1 [Example 24, 8-Fluoro-1-(3-methoxyphenyl)-3,4-dimethylimidazo[1,5-a]quinoxaline] |  | ≤ 10 nM | 
15 | Cc1ccccc1-c1nc(C)c2c(C)nc3ccc(F)cc3n12 [Example 25, 8-Fluoro-3,4-dimethyl-1-(2-methylphenyl)imidazo[1,5-a]quinoxaline] |  | ≤ 10 nM | 
16 | Cc1cccc(-c2nc(C)c3c(C)nc4ccc(F)cc4n23)c1 [Example 26, 8-Fluoro-3,4-dimethyl-1-(3-methylphenyl)imidazo[1,5-a]quinoxaline] |  | 10 to 100 nM | 
17 | Cc1nc(-c2ccccc2C(F)(F)F)n2c1c(C)nc1ccc(F)cc12 [Example 27, 8-Fluoro-3,4-dimethyl-1-[2-(trifluoromethyl)phenyl]imidazo[1,5-a]quinoxaline] |  | 10 to 100 nM | 

Row | Molecule | IC50 [1] | IC50 [2] | melting point
18 | Cc1nc(-c2ccccc2OC(F)(F)F)n2c1c(C)nc1ccc(F)cc12 [Example 28, 8-Fluoro-3,4-dimethyl-1-[2-(trifluoromethoxy)phenyl]imidazo[1,5-a]quinoxaline] | ≥ 100 nM | 10 to 100 nM | 
19 | Cc1ccsc1-c1nc(C)c2c(C)nc3ccc(F)cc3n12 [Example 29, 8-Fluoro-3,4-dimethyl-1-(3-methyl-2-thienyl)imidazo[1,5-a]quinoxaline] | 10 to 100 nM | 10 to 100 nM | 
20 | Cc1noc(C)c1-c1nc(C)c2c(C)nc3ccc(F)cc3n12 [Example 30, 1-(3,5-Dimethylisoxazol-4-yl)-8-fluoro-3,4-dimethylimidazo[1,5-a]quinoxaline] |  | ≥ 100 nM | 
21 | Cc1ccccc1-c1nc(C)c2c(C)nc3c(O)cc(O)cc3n12 [Example 54, 6,8-Dihydroxy-3,4-dimethyl-1-(2-methylphenyl)-imidazo[1,5-a]quinoxaline] | 10 to 100 nM | ≤ 10 nM | 
22 | Cc1nc(-c2ccccc2Cl)n2c1c(C)nc1cc(O)ccc12 [Example 55, 1-(2-Chlorophenyl)-3,4-dimethyl-7-hydroxy-imidazo(1,5-a)quinoxaline] | 10 to 100 nM | 10 to 100 nM | 
23 | Cc1ccccc1-c1nc(C)c2c(C)nc3c(OC(F)F)cc(OC(F)F)cc3n12 [Example 56, 6,8-Bis-difluoromethoxy-3,4-dimethyl-1-(2-methylphenyl)-imidazo(1,5-a)quinoxaline] | ≤ 10 nM | ≤ 10 nM | 
24 | Cc1nc(-c2ccccc2Cl)n2c1c(C)nc1cc(OCc3c(F)cccc3F)ccc12 [Example 57, 1-(2-Chloro-phenyl)-7-(2,6-difluorobenzyloxy)-3,4-dimethyl-imidazo(1,5-a)quinoxaline] | 10 to 100 nM | ≤ 10 nM | 
25 | Cc1nc(-c2ccccc2Cl)n2c1c(C)nc1cc(OCc3ccc4ccccc4n3)ccc12 [Example 58, 1-(2-Chloro-phenyl)-7-(quinolin-2-ylmethoxy)-3,4-dimethyl-imidazo(1,5-a)quinoxaline] | ≤ 10 nM | ≤ 10 nM | 
26 | Cc1nc(-c2ccccc2Cl)n2c1c(C)nc1cc(OCc3cccc([N+](=O)[O-])c3)ccc12 [Example 59, 1-(2-Chloro-phenyl)-3,4-dimethyl-7-(3-nitrobenzyloxy)-imidazo(1,5-a)quinoxaline] | 10 to 100 nM | ≤ 10 nM | 
27 | Cc1nc(-c2ccccc2Cl)n2c1c(C)nc1cc(OCc3cccc(N)c3)ccc12 [Example 60, 7-(3-Aminobenzyloxy)-1-(2-chlorophenyl)-3,4-dimethyl-imidazo(1,5-a)quinoxaline] | 10 to 100 nM | ≤ 10 nM | 
28 | CNC(=O)Nc1cccc(COc2ccc3c(c2)nc(C)c2c(C)nc(-c4ccccc4Cl)n23)c1 [Example 61, N-1-{3-[1-(2-Chlorophenyl)-3,4-dimethyl-imidazo(1,5-a)quinoxalin-7-yloxymethyl]-phenyl}-N′-methyl-urea] | 10 to 100 nM | ≤ 10 nM | 
29 | COc1cc(F)cc2c1nc(C)c1c(C)nc(-c3ccc(F)c(C(N)=O)c3)n12 [Example 86, 2-fluoro-5-(8-fluoro-6-methoxy-3,4-dimethylimidazo[1,5-a]quinoxalin-1-yl)benzamide] |  | ≤ 10 nM | 
30 | CCc1nc(C)c2c(Cl)nc3ccc(N4CCCCC4)cc3n12 [Intermediate B2, 4-Chloro-1-ethyl-3-methyl-8-piperidin-1-yl-imidazo(1,5-a)quinoxaline] |  | 10 to 100 nM | 
31 | Cc1nc(-c2ccccc2Cl)n2c1c(Cl)nc1ccc(F)cc12 [Intermediate B8] |  | ≤ 10 nM | 
32 | COc1ccc2nc(Cl)c3c(C)nc(C4CCCCC4)n3c2c1 [Intermediate B11] |  |  | 212 to 215 °C
33 | Cc1nc(C2CCCCC2)n2c1c(Cl)nc1ccc(OCC3CC3)cc12 [Intermediate B13] |  |  | 165 to 168 °C
34 | CCCc1nc(C)c2c(Cl)nc3cc(OC)ccc3n12 [Intermediate B15] |  |  | 154 to 159 °C
